Test [1] relates to Escherichia coli. The test can be described thus: Microbicidal activity against UV-induced Escherichia coli WP2 B/r Trp at a dose of 120 ug/mL; Not active. It is filed as functional, organism-based.
Test [2] deals with Escherichia coli. In words: Bio-antimutagenic activity against UV-induced Escherichia coli WP2 B/r Trp. Type of test: functional.
The subject of test [3] is Escherichia coli. In words: Microbicidal activity against UV-induced Escherichia coli WP2 B/r Trp at a dose of 150 ug/mL; Not active. It is filed as functional, organism-based.
For test [4], the system named is Escherichia coli. The test can be described thus: Bio-antimutagenic activity against UV-induced Escherichia coli WP2 B/r Trp; Not active. Type of test: functional, organism-based.
In test [5] the test system is Escherichia coli. In words: Compound was tested for half inhibition-dose of mutation frequency of UV-induced Escherichia coli WP2 B/r Trp. Type of test: functional.

Activity calls are given as the source filed them. The rule behind the calls is not given here.

`CCCCCCCC[C@H](O)/C=C1/CCCC1=O`: the outcome with Escherichia coli [1] was inactive. Moreover, the AD50 in the test on Escherichia coli [2] is 50 µg/mL.

With `CCCCCC[C@@H](O)/C=C1/CCCC1=O`, in the test with Escherichia coli [3], the result was inactive. The AD50 result in the test with Escherichia coli [4] is “inactive”.

For `CCCCCC[C@H](O)/C=C1/CCCC1=O`, the outcome in the test on Escherichia coli [1] was inactive. In the test on Escherichia coli [2], the AD50 was 50 µg/mL.

Turning to `CCCCCCCC[C@@H](O)/C=C1/CCCC1=O`, in the test on Escherichia coli [3], the result was inactive. For the same molecule, the AD50 result in the test with Escherichia coli [4] is “inactive”.

Take `CCCCCCC(O)/C=C1/CCCC1=O` (stereo not given): the AD50 in the test with Escherichia coli [5] worked out at 79 µg/mL.

In the test on Escherichia coli [5], `CCCCCCCCC(O)/C=C1/CCCC1=O` (stereo not given) displayed an AD50 of 6.7 µg/mL.
